Results reported in article PMC11241267, “Prokaryotic Expression and Functional Verification of Antimicrobial Peptide LRGG” (International Journal of Molecular Sciences, 2024).
Where no end group is shown, it is not given here.

Legend:
[1] = test system: AB-strain zebrafish embryos; assay: Embryotoxicity in zebrafish; assay type: in vivo; settings: embryos at 28 °C for approximately 2–3 days, light microscope; for zebrafish morphology (embryotoxicity): 1 × MIC
Method: A sodium dehydroacetate solution of 200 μg/mL served as the positive control, while the negative control group contained only culture medium. The embryos were cultured in a constant temperature incubator at 28 °C for approximately 2–3 days, and their morphology after fertilization was observed using a light microscope.

[2] = test system: Eschericha coli ATCC25922; assay: Protease stability (MIC after protease treatment); assay type: cell-based; parameters: MIC value, Control: unit not given beside the values; settings: triplicate; for MIC value after Papain: peptide incubated with 1 mg/mL papain; for MIC value after Papain / MIC value after Pepsin / MIC value after Protease K / MIC value after Trypsin: enzyme inactivated before MIC; for MIC value after Pepsin: peptide incubated with 1 mg/mL pepsin; for MIC value after Protease K: peptide incubated with 1 mg/mL protease K; for MIC value after Trypsin: peptide incubated with 1 mg/mL trypsin; for MIC value, Control: untreated peptide, Table 3 control
Method: (§1) The strains kept at −80 °C were reactivated, plated, and incubated overnight at 37 °C. Single colonies were picked, inoculated into 5 mL of MH medium, and cultured until they reached OD600 = 0.5. The bacterial suspensions were then diluted to 1 × 10^5 CFU/mL, and 50 μL was added to wells 1–11. Then, 50 μL and 100 μL of deionized water were added to wells […], respectively, to provide a positive and a negative control. The concentration of peptide present in the first non-turbid well in which bacterial growth was inhibited was taken as the minimal inhibitory concentration (MIC). This experiment was repeated three times.
(§2) The efficacy of the chemically synthesized and in vivo-expressed LRGG peptide were tested for their efficacy against Eschericha coli ATCC 25922 under various conditions, such as heat and different pH conditions, before determining their MIC in triplicate. In one case, the peptides were placed in ice-cold water at 0 °C and heated to 37 °C and 100 °C for 30 min each, and their efficacy was compared to that of an untreated control group. This process was repeated three times. In another case, the peptides were exposed for one hour to pH values of 4, 6, 8, and 10, and their activity was compared to that of an untreated control group. In another set of experiments, the peptides were mixed and incubated with 1 mg/mL of four different proteases. After inactivation of the enzymes, the peptides were tested for their efficacy against Eschericha coli ATCC 25922. The peptides were also tested after mixing with various salt solutions and concentrations of fetal bovine serum at concentrations ranging from 5% to 50%. In all cases, the MIC were determined in triplicate using untreated antimicrobial peptides as controls.

[3] = test system: Eschericha coli ATCC25922; assay: Temperature and pH stability (MIC after treatment); assay type: cell-based; parameters: MIC value, Control (pH 7) / MIC value after 0 °C / MIC value after 37 °C / MIC value after 100 °C / MIC value after pH 4 / MIC value after pH 6 / MIC value after pH 8 / MIC value after pH 10: unit not given beside the values; settings: for MIC value after pH 4: peptide exposed for one hour to pH 4; for MIC value after pH 4 / MIC value after pH 6 / MIC value after pH 8 / MIC value after pH 10 / MIC value after 37 °C / MIC value after 100 °C / MIC value after 0 °C / MIC value, Control (pH 7): triplicate; for MIC value after pH 6: peptide exposed for one hour to pH 6; for MIC value after pH 8: peptide exposed for one hour to pH 8; for MIC value after pH 10: peptide exposed for one hour to pH 10; for MIC value after 37 °C: peptide heated to 37 °C for 30 min before MIC; for MIC value after 100 °C: peptide heated to 100 °C for 30 min before MIC; for MIC value after 0 °C: peptide in ice-cold water at 0 °C for 30 min before MIC; for MIC value, Control (pH 7): untreated peptide, Table 2 control; for increase of MIC value at 100 °C: versus untreated control
Method: as §1
as §2, with “In another case, the peptides were exposed for one hour to pH values of 4, 6, 8, and 10, and their activity was compared to that of an untreated control group.” left out

[4] = test system: Eschericha coli ATCC25922; assay: Serum stability (MIC at different serum concentrations); assay type: cell-based; settings: triplicate; for MIC value in 5% serum: fetal bovine serum 5%; for MIC value in 10% serum: fetal bovine serum 10%; for MIC value in 20% serum: fetal bovine serum 20%; for MIC value in 40% serum: fetal bovine serum 40%; for MIC value in 50% serum: fetal bovine serum 50%; for MIC value, Control: untreated peptide, Table 5 control
Method: as §1, §2

[5] = test system: sheep red blood cells; assay type: cell-based; settings: red cells of sheep
Method: To obtain a suspension containing 2% red blood cells, 15 mL of sheep blood was collected in a tube containing 0.2% sodium heparin anticoagulant and centrifuged at 1000 rpm for 10 min. After discarding the supernatant, the red blood cell pellet was collected, washed twice with sterile phosphate buffered saline (PBS), and resuspended in PBS. […] After the erythrocyte suspension was incubated with the antimicrobial peptide LRGG for one hour at 37 °C, the mixture from each well of the 96-well plate was aspirated and centrifuged at 1000× g for 10 min. The absorbance of the supernatant was then measured at 570 nm, with three repeats and averaging. Finally, the hemolytic index was calculated as follows: Hemolytic index (%) = (O.D. peptide − O.D. PBS)/(O.D. TritonX − 100 − O.D. PBS) × 100%.

[6] = test system: Eschericha coli ATCC25922; assay: Salt ion stability (MIC in salt solutions); assay type: cell-based; parameters: unit not given here; settings: triplicate; for MIC value with MgCl2: 1 mM MgCl2; for MIC value with CaCl2: 2.5 mM CaCl2; for MIC value with KCl: 4.5 mM KCl; for MIC value with NH4Cl: 6 mM NH4Cl; for MIC value with NaCl: 150 mM NaCl; for MIC value, Control: untreated peptide, Table 4 control
Method: as §1, §2

[7] = test system: Eschericha coli ATCC25922; assay: Plasma membrane potential (diSC3-5); assay type: cell-based; settings: 1–8 MIC, 0–1500 s, diSC3-5 0.4 μM
Method: To determine whether the expressed antimicrobial peptide LRGG can break bacterial cytoplasmic membranes, diSC3-5 was used as a fluorescent dye to monitor changes in membrane potential. A bacterial suspension was prepared and adjusted to an ABS O.D. of 600 = 0.5. Next, the same volume of bacterial suspension and varying concentrations of expressed antimicrobial peptide LRGG (1–8 MIC) were added to black 96-well plates. A control group was established using PBS, and diSC3-5 dye was added to a final concentration of 0.4 μM and incubated at room temperature in the dark for one hour. Changes in […] between 0 and 1500 s were measured using a fluorescence microplate reader at excitation (622 nm) and emission (670 nm) wavelengths.

Molecule | MIC value after Papain [2] | MIC value after Pepsin [2] | MIC value after Protease K [2] | MIC value after Trypsin [2] | MIC value, Control [2] | MIC value after pH 4 [3] | MIC value after pH 6 [3] | MIC value after pH 8 [3] | MIC value after pH 10 [3] | MIC value after 37 °C [3] | MIC value after 100 °C [3] | MIC value after 0 °C [3] | MIC value, Control (pH 7) [3] | increase of MIC value at 100 °C [3] | MIC value in 5% serum [4] | MIC value in 10% serum [4] | MIC value in 20% serum [4] | MIC value in 40% serum [4] | MIC value in 50% serum [4] | MIC value, Control [4] | also measured
CC(=O)c1c([O-])cc(C)oc1=O.[Na+] [sodium dehydroacetate, reference compound] |  |  |  |  |  |  |  |  |  |  |  |  |  |  |  |  |  |  |  |  | zebrafish morphology (embryotoxicity), positive control ([1]; 200 μg/mL): significant hemorrhage and severe bending of the fish
GLLRLLRRGGRRLLRLL [Expressed LRGG] | >64 | >128 | >64 | >128 | 4 | 2 | 4 | 2 | 16 | 4 | 8 | 2 | 2 | four-fold | 2 | 4 | 32 | 32 | 32 | 2 | hemolytic index [5]: less than 10%; MIC value with MgCl2 [6]: 8; MIC value with CaCl2 [6]: 4; MIC value with KCl [6]: 8; MIC value with NH4Cl [6]: 4; MIC value with NaCl [6]: 8; MIC value, Control [6]: 4; zebrafish morphology (embryotoxicity) [1]: did not change the morphology of the zebrafish; diSC3-5 fluorescence value (cytoplasmic membrane potential) [7]: gradually increased
H-LLRLLRRGGRRLLRLL-NH2 [Chem. Syn. LRGG] | >64 | >128 | >64 | >128 | 2 | 2 | 2 | 4 | 4 | 2 | 8 | 2 | 2 | four-fold | 2 | 2 | 8 | 16 | 16 | 2 | MIC value with MgCl2 [6]: 4; MIC value with CaCl2 [6]: 4; MIC value with KCl [6]: 2; MIC value with NH4Cl [6]: 2; MIC value with NaCl [6]: 8; MIC value, Control [6]: 2; zebrafish morphology (embryotoxicity) [1]: did not change the morphology of the zebrafish
